Data on four molecules can be found in paper PMC9601806, “Calcium Binding Mechanism of Soybean Peptide with Histidine Alteration by Molecular Docking Analysis and Spectroscopic Methods” (Foods, 2022).

Data set [1] is described as follows: Simulated gastrointestinal digestion and Caco-2 absorption, LC-MS/MS identification. Format: in vitro ADME. As to conditions: pepsin pH 2, 37 °C, 90 min, then trypsin and bile salts pH 7.5, Caco-2 absorption 0.1 mg/mL, 2 h. As to the method: The simulation of gastrointestinal digestion was carried out following the method described before with some modifications. The gastric set was reproduced by the suspension of porcine pepsin (40 mg) into 1 mL 0.1N HCl. The intestinal stage was stimulated by adding bile salts (40 mg) and trypsin (10 mg) into 5 mL of 0.1 mol/L NaHCO3. Gastric digestion was performed by incubating the CBP–calcium complex or CaCl2 (prepared with equal Ca^2+ concentration, pH = 2) at a pepsin/substrate ratio of 1:100 (w/w) in a water bath shaker (37 °C, 90 min). […], the […] at 1:25 (w/w) of substrates was added, following by adjusting the pH to 7.5. After that, samples were removed after deactivating trypsin by thermal denaturation for 5 min. Then, the obtained samples were lyophilized and stored at −20 °C for the sake of subsequent studies.
The human intestinal Caco-2 cell line has been extensively used as an intestinal barrier model. These cells were cultured in high-glucose Dulbecco’s Eagle’s medium (DMEM), which contained 10% fetal bovine serum (FBS), 100 μg mL^−1 streptomycin, and 100 U mL^−1 penicillin, and were incubated at 37 °C in a humidified 5% CO2 incubator. Transepithelial transport through the Caco-2 single cell layer was performed in accordance with Wang et al.’s method. […]

The conditions of data set [2]: cited from earlier work. As to the method: To clarify the calcium-binding capacity of CBP-H, Nanjing Peptide Biotechnology Corporation. Ltd. (Nanjing, China) synthesized the peptide CBP-H using a solid-phase procedure. High performance liquid chromatography (HPLC) analysis was performed to determine the purity (98%) of CBP-H (Figure S1A), and ESI mass spectrometry was used to confirm the peptide structure. […] In addition, the CBP-H–Ca complex was prepared, followed by ICP-AES to detect the calcium-binding capacity. […] Spectroscopic methods were used to analyze the binding mode and binding sites including ITC, UV, FTIR, and XRD. Isothermal titration calorimetry was always used to measure reversible reactions between bio-molecules. This methodology provided the affinity constant, stoichiometry, enthalpy, and entropy of the biomolecular interactions.

Residues, ends and D or L forms follow the SMILES beside them.

With `CC[C@H](C)[C@H](NC(=O)[C@H](CCC(N)=O)NC(=O)[C@H](CCC(=O)O)NC(=O)[C@H](CC(=O)O)NC(=O)[C@H](CCC(=O)O)NC(=O)[C@@H](N)CC(=O)O)C(=O)N1CCC[C@H]1C(=O)N[C@@H](CO)C(=O)N[C@@H](Cc1c[nH]cn1)C(=O)N1CCC[C@H]1C(=O)N1CCC[C@H]1C(=O)N[C@@H](CCCNC(=N)N)C(=O)O` [CBP, Asp-Glu-Asp-Glu-Gln-IIe-Pro-Ser-His-Pro-Pro-Arg] (H-DEDEQIPSHPPR-OH), the “stability after simulated gastrointestinal digestion” value in data set [1] was “partially stable”.
Same read-out and setting: to `CC[C@H](C)[C@H](NC(=O)[C@H](CCC(N)=O)NC(=O)[C@H](CCC(=O)O)NC(=O)[C@H](CC(=O)O)NC(=O)[C@H](CCC(=O)O)NC(=O)[C@@H](N)CC(=O)O)C(=O)N1CCC[C@H]1C(=O)N[C@@H](CO)C(=O)N[C@@H](CC(C)C)C(=O)N1CCC[C@H]1C(=O)N1CCC[C@H]1C(=O)N[C@@H](CCCNC(=N)N)C(=O)O` [CBP-H, Asp-Glu-Asp-Glu-Gln-IIe-Pro-Ser-Leu-Pro-Pro-Arg] (H-DEDEQIPSLPPR-OH) belongs “partially stable”.
Consider Thr-Cys-His, for which, in data set [2] (peptide from shrimp protein hydrolysates), the calcium binding capacity was 2.7 mmol/g.
As for “GPAGPHGPVG [tilapia bone collagen peptide, literature comparison]”, the calcium-binding capacity in data set [2] (tilapia bone collagen peptide) is given as 18.80 ± 0.49 mg/g.
